Measured values reported in publication PMC10423028 (FEMS Microbiology Letters, 2023).

Biological target: VFT^pp (periplasmic VFT domain of RmcA^pp) (Pseudomonas putida, UniProt Q88QU8)
Test: biochemical

Chain of VFT^pp (periplasmic VFT domain of RmcA^pp) (Q88QU8 21-265): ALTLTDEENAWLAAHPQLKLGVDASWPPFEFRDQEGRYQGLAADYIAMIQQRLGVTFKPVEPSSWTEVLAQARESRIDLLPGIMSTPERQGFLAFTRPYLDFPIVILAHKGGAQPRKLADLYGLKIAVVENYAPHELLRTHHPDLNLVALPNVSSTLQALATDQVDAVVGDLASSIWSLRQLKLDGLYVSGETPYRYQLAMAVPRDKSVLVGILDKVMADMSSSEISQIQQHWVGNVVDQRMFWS

Kd: 7.1 ± 2.2 µM
Compound: N=C(N)NCCC[C@H](N)C(=O)O [L-arginine]
